In US20190315775A1, “MODIFIED […] AND PHARMACEUTICAL COMPOSITION HAVING SAME AS ACTIVE INGREDIENT” (KEIO UNIVERSITY, priority 2016, published 2019):

Key:
[1] = system: KMM1 high-risk MM cell line; assay: MTT cell proliferation inhibition, KMM1; type: cell-based; details: Homo sapiens, KMM-1, KMM1, t(6;14), t(8;14), del17, 48 hours, read-out: IC50, cell proliferation inhibitory activity, KMM1
Experimental: (§1) For examination of cell proliferation inhibitory activity, high-risk MM cell lines (KMM1, KMS11, KMS21, KMS26, KMS28, KMS34) established by Takemi Otsuki et al., of Kawasaki Medical School were used (Otsuki, T. et al., Int. J. Oncol., 15: 1205-1212, 1999). […] The genetic abnormality of these cell types, and in particular deletion of p53 gene were examined by FISH method (Chang, H. Blood, 105: 358-360, 2005) (WO2010/061862A1). […] These high-risk MM cell lines were treated with drugs such as TC11, HOEtO-TC11, PEG11(E)-TC11, and PEG11(O)-TC11 at arbitrary concentrations. […] Specifically, each high-risk MM cell line was prepared at a concentration of 2×10^5 cells/ml, and then seeded in an amount of 50 μl (1×10^4 cells) per well. After 24 hours, drugs such as TC11, HOEtO-TC11, PEG11(E)-TC11, and PEG11(O)-TC11 having arbitrary concentrations were added. At 48 hours after addition of each drug, 10 μL each of an MTT labeling reagent in Cell Proliferation Kit I [MTT] (Roche Diagnostics, Basel, Switzerland) was added. After 4 hours of treatment at 37° C., 100 μL each of solution buffer was added and then left to stand overnight at 37° C. Absorbance was measured using a microplate reader Infinit™ M1000 (Tecan, Maennedorf, Switzerland) at a wavelength of 570 nm. Cell viability was found from an absorbance ratio using absorbance at 0 μM designated as 100%. IC50 was calculated from a semi-logarithmic chart using Microsoft (registered trademark) Excel.

high-risk MM cell lines = assay: MTT cell proliferation inhibition, panel of high-risk MM cell lines; type: cell-based; details: Homo sapiens, range over the cell lines of Table 2, 48 hours
Experimental: as §1

[2] = Dissolution in physiological saline for dosing; type: physicochemical; details: physiological saline (NaCl 0.9 w/v %) alone, dosing concentration
[3] = system: high-risk MM cells (MUM24); assay: Apoptosis induction, Annexin V/PI flow cytometry; type: cell-based, human; details: MUM24, 10 μM, 24, 48 and 72 hours
Experimental: For observation of apoptosis induction caused by drugs, TC11 and PEG11(E)-TC11, one type of MM cells, MUM24 cells were treated with TC11 and PEG11(E)-TC11, Annexin V/PI staining was performed, and then analysis was conducted using a flow cytometer. More specifically, MUM24 was adjusted at 2.0×10^5 cells/mL, and then 1.95 mL each thereof was seeded to a 6-well plate. From the next day, TC11 and PEG11(E)-TC11 were added in such a manner that the final concentrations were 0, and 10 μM, and then cells were cultured at 37° C. for 24, 48, and 72 hours. Each cell (1.5 ml each) was collected, and then washed twice with Phosphate Buffered Saline (PBS, Sigma-Aldrich). Subsequently, each resultant was suspended again in a solution prepared by adding 5 μL of Annexin V-FITC and 5 μL of Propidium Iodide (PI) to 500 μL of 1×Binding Buffer in Annexin V-FITC Apoptosis Detection Kit (Bio Vision, California, USA), and then left to stand in the dark for 5 minutes. Fluorescence intensity was measured using BD™ LSR II Flow Cytometer (Becton, Dickinson and company, New Jersey, USA). Wavelengths to be measured were excitation wavelength of 488 nm, and fluorescence wavelengths of 530±15 nm for Annexin V-FITC and 610±10 nm for PI.

[4] = system: high-risk MM cells (KMS34); assay: WST-1 proliferation assay (Example 11), KMS34; type: cell-based, human; details: WST-1, 48 hours, FIG. 6
Experimental: Proliferation assay of cancer cells and normal cells was performed using WST-1 as follows. One μ1 each of PEG11(E)-TC11 and TC11 prepared at target concentrations was added to each well of a 96-well microplate. Medium was added to the wells at 50 μl per well, and then mixed by tapping lightly the plate. Next, high-risk MM cells (KMS34) prepared at 5×10^5 cells/ml and bone marrow stromal cell-derived normal cells (WT) prepared at 2×10^5 cells/ml were seeded at 50 μl (2.5×10^4 cells and 1×10^4 cells, respectively) per well, and then incubated in a CO2 incubator (37° C., 5% CO2) for 48 hours. Ten (10) μ1 each of cell proliferation reagent WST-1 (Roche) was added to each well after incubation, and then the resultants were mixed by lightly tapping the plate, followed by 1 hour of reaction in the CO2 incubator. Subsequently, the plate was shaken with a plate reader for 1 minute, and then absorbance was measured at 450 nm. At this time, absorbance was also measured at 595 nm as a reference wavelength. The net absorbance was obtained by subtracting the absorbance at the reference wavelength from the absorbance at 450 nm.

KMS11 xenograft = assay: Antitumor effect on KMS11-bearing mice (Example 16); type: in vivo, ICR/SCID mice; details: for Body weight compared to the control group: at the doses suppressing tumor growth; for Tumor volume compared to the control: i.p., equimolar to TC11 60 mg/kgBW
Experimental: TC11 and its derivatives were examined for in vivo antitumor effects using 6 KMS11 xenograft model mice. KMS11 was administered to 6-week-old ICR/SCID mice at 3×10^7 cells/mouse via hypodermic injection. Tumor volume was measured over time. The day on which each tumor volume exceeded 50 mm^3 was designated as Day 1 and observation was performed for 14 days. The single dosage of TC11 was 60 mg/kgBW, the intraperitoneal dosages of PEG11(E)-TC11 and PEG11(O)-TC11 were 177.3 mg/kgBW and 163.8 mg/kgBW, respectively, which were equimolar amounts of that of TC11. […] The final composition of the solvent was 10% DMSO+1% Tween 80/physiological saline. […] Drug administration was performed for two out of every 3 days (Day 1, 2, 4, 5, 7, 8, 10, 11, […], 13). Mice were sacrificed on Day 14, and then tumor weights were measured and in vivo findings were confirmed.

[5] = 6 KMS11 xenograft model mice, i.p. 177.3 mg/kgBW

Row | Dissolution in physiological saline [2] | Compound | IC50 [1] [µM] | IC50 (high-risk MM cell lines) [µM] | Apoptosis induction (Annexin V+/PI− and Annexin V+/PI+ fractions) [3] | Proliferation inhibitory activity against high-risk MM cells (KMS34) [4] | Mice from which the primary lesion had completely disappeared (KMS11 xenograft; [5]) [mouse] | Mice having tumor sizes almost the same as at initiation of administration (KMS11 xenograft; [5]) [mice] | Body weight compared to the control group (KMS11 xenograft; KMS11 xenograft mice) | Tumor volume compared to TC11 (KMS11 xenograft; KMS11 xenograft mice, i.p. 177.3 mg/kgBW, 14 days) | Tumor volume compared to the control (KMS11 xenograft; KMS11 xenograft mice, 14 days)
1 | completely dissolved | COCCOCCOCCOCCOCCOCCOCCOCCOCCOCCOCCOCCC(=O)OCCOc1cc2c(cc1N)C(=O)N(c1c(C(C)C)cccc1C(C)C)C2=O [PEG11(E)-TC11] | 6.3 | 1 to 7 | clearly induce apoptosis | significant proliferation inhibitory activity | 1 | 3 | no decrease in body weight | significant decrease in tumor volume compared to TC11 | significant decreases in tumor volume
2 | completely dissolved | COCCOCCOCCOCCOCCOCCOCCOCCOCCOCCOCCOCCOc1cc2c(cc1N)C(=O)N(c1c(C(C)C)cccc1C(C)C)C2=O [PEG11(O)-TC11] | 59.3 | 5 to 60 |  |  |  |  | no decrease in body weight |  | significant decreases in tumor volume
3 | hardly dissolved | CC(C)c1cccc(C(C)C)c1N1C(=O)c2ccc(N)cc2C1=O [TC11, 2-(2,6-di-isopropylphenyl)-5-amino-1H-isoindole-1,3-dione, reference compound] | 5.1 | 2 to 8 | clearly induce apoptosis | significant proliferation inhibitory activity |  |  | no decrease in body weight |  | significant decreases in tumor volume
